Experimental data reported in ChEMBL document CHEMBL6127052, “Discovery of membrane-targeting amphiphilic honokiol derivatives containing an oxazolethione moiety to combat methicillin-resistant Staphylococcus aureus (MRSA) infections” (Eur J Med Chem, 2024).
Activity calls are given as the source filed them. No cut-off for these calls is given here.

How the values were obtained:
[1] = Toxicity in KM mouse infected with methicillin-resistant Staphylococcus aureus clinical isolate M12 assessed as damage in lung at 5 to 10 mg/kg, sc measured after 24 hrs by H and E staining based analysis; type: organism-based; conditions: in vivo, dose 5-10 mg/kg
Staphylococcus aureus [2] = assay: (§1) Antibacterial activity against methicillin-resistant Staphylococcus aureus clinical isolate M12 infected in sepsis BALB/c mouse model assessed as decrease in necrosis in renal tubular epithelial cells at 6 to 12 mg/kg, ip administered consecutively at 12 hr-interval for 24 hrs measured after 24 hrs post-last dose by H and E staining based analysis; type: functional, organism-based; conditions: dose 6-12 mg/kg, time 48.0 hrs
[3] = Toxicity in BALB/c mouse assessed as animal death at 40 mg/kg, ip bid for 7 days; type: organism-based; conditions: in vivo, 168 h, time 7 day
Staphylococcus aureus [4] = assay: Antibacterial activity against Staphylococcus aureus ATCC 29213 by CLSI based micro-broth dilution method; type: functional
[5] = Toxicity in KM mouse assessed as pathological change in skin at 20 mg/kg, sc measured after 24 hrs by H and E staining based analysis; type: organism-based; conditions: in vivo
Staphylococcus aureus [6] = assay: Induction of membrane permeability in methicillin-resistant Staphylococcus aureus clinical isolate M12 at 8 to 32 times MIC measured for 15 mins by SYTOX Green dye based analysis; type: functional, organism-based
Staphylococcus aureus [7] = assay: Antibacterial activity against methicillin-resistant Staphylococcus aureus clinical isolate M12 infected in sepsis BALB/c mouse model assessed as decrease in bacterial load in kidney at 12 mg/kg, ip administered consecutively at 12 hr-interval for 24 hrs measured after 24 hrs post-last dose; type: functional; conditions: time 48 hrs
[8] = Toxicity in BALB/c mouse assessed as knotted hair at 40 mg/kg, ip bid for 7 days; type: organism-based; conditions: in vivo, 168 h, time 7 day
Staphylococcus aureus [9] = assay: Antibacterial activity against methicillin-resistant Staphylococcus aureus clinical isolate M23 by CLSI based micro-broth dilution method; type: functional
Staphylococcus aureus [10] = assay: Disruption of cell membrane in methicillin-resistant Staphylococcus aureus clinical isolate M12 assessed as increase in protein leakage incubated for 4 hrs by BCA assay; type: functional, organism-based; conditions: dose <= 16.0 µg/ml
[11] = Toxicity in KM mouse infected with methicillin-resistant Staphylococcus aureus clinical isolate M12 assessed as damage in kidney at 5 to 10 mg/kg, sc measured after 24 hrs by H and E staining based analysis; type: organism-based; conditions: in vivo, dose 5-10 mg/kg
[12] = Toxicity in KM mouse infected with methicillin-resistant Staphylococcus aureus clinical isolate M12 assessed as damage in spleen at 5 to 10 mg/kg, sc measured after 24 hrs by H and E staining based analysis; type: organism-based; conditions: in vivo, dose 5-10 mg/kg
Staphylococcus aureus [13] = assay: Antibacterial activity against methicillin-resistant Staphylococcus aureus N315 by CLSI based micro-broth dilution method; type: functional
[14] = Toxicity in BALB/c mouse assessed as necrosis in hepatocytes at 15 mg/kg, ip bid for 7 days; type: organism-based; conditions: in vivo, 168 h, time 7 day
[15] = Toxicity in KM mouse assessed as necrosis in renal tubular epithelial cells at 20 mg/kg, sc measured after 24 hrs by H and E staining based analysis; type: organism-based; conditions: in vivo
[16] = Toxicity in BALB/c mouse assessed as change in blood biochemistry index at 15 mg/kg, ip bid for 7 days; type: organism-based; conditions: in vivo, 168 h, time 7 day
Staphylococcus aureus [17] = assay: as §1, with “deformation of hepatocytes” for “necrosis in renal tubular epithelial cells”, “6” for “6 to 12”; type: functional, organism-based; conditions: time 48.0 hrs
Staphylococcus aureus [18] = assay: Induction of resistance development in Staphylococcus aureus ATCC 29213 at 0.5 times MIC treated for 20 days of consecutive passages; type: functional, organism-based; conditions: time 20.0 day
[19] = Toxicity in KM mouse assessed as inflammatory cell infiltration in renal tubular epithelial cells at 20 mg/kg, sc measured after 24 hrs by H and E staining based analysis; type: organism-based; conditions: in vivo
Staphylococcus aureus [20] = assay: Induction of membrane permeability in methicillin-resistant Staphylococcus aureus clinical isolate M12 at 8 to 32 times MIC measured every 2 mins for 10 times by SYTOX Green dye based analysis; type: functional, organism-based
[21] = Toxicity in KM mouse assessed as intact structure in skin layers at 20 mg/kg, sc measured after 24 hrs by H and E staining based analysis; type: organism-based; conditions: in vivo
[22] = Toxicity in BALB/c mouse assessed as degeneration of renal tubular epithelial cells at 15 mg/kg, ip bid for 7 days; type: organism-based; conditions: in vivo, 168 h, time 7 day
Staphylococcus aureus [23] = assay: Disruption of cell membrane in methicillin-resistant Staphylococcus aureus clinical isolate M12 assessed as fold increase in intracellular ROS level at 128 ug/ml incubated for 40 mins by DCFH-DA probe based analysis relative to control; type: functional; conditions: dose 128 µg/ml
[24] = Toxicity in KM mouse assessed as skin abnormality at <20 mg/kg, sc; type: organism-based; conditions: in vivo
Staphylococcus aureus [25] = assay: Antibacterial activity against methicillin-resistant Staphylococcus aureus clinical isolate M12 infected in sepsis BALB/c mouse model assessed as decrease in bacterial load in spleen at 12 mg/kg, ip administered consecutively at 12 hr-interval for 24 hrs measured after 24 hrs post-last dose; type: functional; conditions: time 48 hrs
[26] = Toxicity in KM mouse assessed as inflammatory cells in skin section at 20 mg/kg, sc measured after 24 hrs by H and E staining based analysis; type: organism-based; conditions: in vivo
Staphylococcus aureus [27] = assay: Bactericidal activity against Staphylococcus aureus ATCC 29213 at 8 times MIC incubated upto 8 hrs by time-kill assay; type: functional, organism-based
[28] = Toxicity in KM mouse assessed as change in HCT level at 20 mg/kg, sc measured after 24 hrs; type: organism-based; conditions: in vivo
[29] = Toxicity in KM mouse assessed as pathological change in kidney at 20 mg/kg, sc measured after 24 hrs by H and E staining based analysis; type: organism-based; conditions: in vivo
[30] = Toxicity in KM mouse assessed as clear skin section at 20 mg/kg, sc measured after 24 hrs by H and E staining based analysis; type: organism-based; conditions: in vivo
[31] = Toxicity in KM mouse assessed as edema in renal tubular epithelial cells at 20 mg/kg, sc measured after 24 hrs by H and E staining based analysis; type: organism-based; conditions: in vivo
Staphylococcus aureus [32] = assay: Bactericidal activity against Staphylococcus aureus ATCC 29213 assessed as inhibition of bacterial growth at 4 times MIC incubated upto 8 hrs by time-kill assay; type: functional, organism-based
Staphylococcus aureus [33] = assay: as §1, with “hepatocytes” for “renal tubular epithelial cells”, “6” for “6 to 12”; type: functional, organism-based; conditions: time 48.0 hrs
[34] = Toxicity in KM mouse assessed as necrosis in lung epithelial cells at 20 mg/kg, sc measured after 24 hrs by H and E staining based analysis; type: organism-based; conditions: in vivo
Staphylococcus aureus [35] = assay: Bactericidal activity against methicillin-resistant Staphylococcus aureus clinical isolate M12 assessed as inhibition of bacterial growth at 4 times MIC incubated upto 8 hrs by time-kill assay; type: functional, organism-based
Staphylococcus aureus [36] = assay: Antibacterial activity against methicillin-resistant Staphylococcus aureus clinical isolate M12 infected in sepsis BALB/c mouse model assessed as decrease in bacterial load in liver at 12 mg/kg, ip administered consecutively at 12 hr-interval for 24 hrs measured after 24 hrs post-last dose; type: functional; conditions: time 48 hrs
[37] = Toxicity in KM mouse assessed as edema in cardiac muscle fibers at 20 mg/kg, sc measured after 24 hrs by H and E staining based analysis; type: organism-based; conditions: in vivo
Staphylococcus aureus [38] = assay: Antibacterial activity against methicillin-resistant Staphylococcus aureus clinical isolate M21 by CLSI based micro-broth dilution method; type: functional
[39] = Toxicity in BALB/c mouse assessed as necrosis in renal tubular epithelial cells at 15 mg/kg, ip bid for 7 days; type: organism-based; conditions: in vivo, 168 h, time 7 day

With C=CCc1cc(-c2ccc(OCCC[N+](C)(C)CC(=O)NCCCC)c(CC=C)c2)c2oc(=S)n(Cc3ccc(F)cc3)c2c1.[Br-] the Activity [1] was “Non-Toxic”, the Activity (Staphylococcus aureus [2]) was “Active” and the Activity [3] was “Toxic”. For the same molecule, the MIC (Staphylococcus aureus [4]) was 2 mg/L, the Activity [5] was “Non-Toxic” and the Activity (Staphylococcus aureus [6]) was “Active”. For the same molecule, the Activity (Staphylococcus aureus [7]) was 1.45 log10CFU/g, the Activity [8] was “Toxic” and the MIC (Staphylococcus aureus [9]) was 2 mg/L. For the same molecule, the Activity (Staphylococcus aureus [10]) was “Dose-Dependent Effect”, the Activity [11] was “Non-Toxic” and the Activity [12] was “Non-Toxic”. The MIC (Staphylococcus aureus [13]) was 4 mg/L, the Activity [14] was “Non-Toxic” and the Activity [15] was “Non-Toxic”. The Activity [16] was “Non-Toxic”, the Activity (Staphylococcus aureus [17]) was “inactive” and the Activity (Staphylococcus aureus [18]) was “inactive”. The Activity [19] was “Non-Toxic”, the Activity (Staphylococcus aureus [20]) was “Active” and the Activity [21] was “Non-Toxic”. For the same molecule, the Activity [22] was “Non-Toxic”, the “fold change (FC)” value (Staphylococcus aureus [23]) was about 1.8 and the Activity [24] was “Non-Toxic”. For the same molecule, the Activity (Staphylococcus aureus [25]) was 1.67 log10CFU/g, the Activity [26] was “Non-Toxic” and the Activity (Staphylococcus aureus [27]) was “Active”. For the same molecule, the Activity [28] was “Non-Toxic”, the Activity [29] was “Non-Toxic” and the Activity [30] was “Non-Toxic”. The Activity [31] was “Non-Toxic”, the Activity (Staphylococcus aureus [32]) was “Active” and the Activity (Staphylococcus aureus [33]) was “inactive”. The Activity [34] was “Non-Toxic”, the Activity (Staphylococcus aureus [35]) was “Active” and the Activity (Staphylococcus aureus [36]) was 1.62 log10CFU/g. For the same molecule, the Activity [37] was “Non-Toxic”, the MIC (Staphylococcus aureus [38]) was 2 mg/L and the Activity [39] was “Non-Toxic”.
